The results in this text go back to ChEMBL document CHEMBL1201862, “PubChem BioAssay data set” (2004).

Assay [1] has as its target Tyrosine-protein phosphatase non-receptor type 5 (Homo sapiens, UniProt P54829). Description: PTPN5 enzyme inhibition – biochemical, fluorescence intensity, uHTS hits, confirmation (AID 602372). It counts as functional. The settings on record: read-out: IC50_Mean.
Assay [2] concerns the target Tyrosine-protein phosphatase non-receptor type 11 (Homo sapiens, UniProt Q06124). Description: PTPN11 enzyme inhibitors – biochemical, selectivity assay for STEP inhibitor project, dose response (AID 602367). It counts as functional. The settings on record: read-out: IC50_Mean.
For assay [3], the target named is Dual specificity protein phosphatase 3 (Homo sapiens, UniProt P51452). Description: VHR phosphatase inhibition, dose response, selectivity assay for STEP inhibitor project, biochemical (AID 602374). Format: functional. The settings on record: read-out: IC50_Mean.
For assay [4], the target named is T1, Sentrin-specific protease 1 (Homo sapiens, UniProt Q9P0U3).
T1 sequence (Q9P0U3 whole entry): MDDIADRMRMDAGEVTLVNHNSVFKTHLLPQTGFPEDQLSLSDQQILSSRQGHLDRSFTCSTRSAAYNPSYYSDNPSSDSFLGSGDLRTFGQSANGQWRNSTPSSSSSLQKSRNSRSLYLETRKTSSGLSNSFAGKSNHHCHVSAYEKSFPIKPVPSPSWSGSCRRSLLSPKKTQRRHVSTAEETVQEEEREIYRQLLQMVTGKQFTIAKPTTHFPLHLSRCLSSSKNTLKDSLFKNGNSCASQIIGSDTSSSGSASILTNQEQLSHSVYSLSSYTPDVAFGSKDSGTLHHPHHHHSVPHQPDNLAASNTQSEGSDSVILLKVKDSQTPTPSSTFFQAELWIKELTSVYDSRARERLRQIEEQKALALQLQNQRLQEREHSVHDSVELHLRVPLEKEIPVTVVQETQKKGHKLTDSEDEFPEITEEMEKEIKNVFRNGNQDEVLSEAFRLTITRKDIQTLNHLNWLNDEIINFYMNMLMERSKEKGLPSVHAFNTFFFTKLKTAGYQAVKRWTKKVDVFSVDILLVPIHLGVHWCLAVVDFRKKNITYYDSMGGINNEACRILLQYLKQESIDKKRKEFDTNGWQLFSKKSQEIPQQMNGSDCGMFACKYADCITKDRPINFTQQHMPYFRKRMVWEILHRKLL
In words: SENP1 catalytic domain blockers, concentration series – biochemical, kinetic FRET, dose response (AID 651697). It counts as functional. The settings on record: read-out: IC50_Mean.

Assay [5] has as its target T2, Corticotropin-releasing factor receptor 2/Corticotropin-releasing factor-binding protein (Homo sapiens, UniProt P24387+Q13324).
T2 sequence (Q13324 whole entry): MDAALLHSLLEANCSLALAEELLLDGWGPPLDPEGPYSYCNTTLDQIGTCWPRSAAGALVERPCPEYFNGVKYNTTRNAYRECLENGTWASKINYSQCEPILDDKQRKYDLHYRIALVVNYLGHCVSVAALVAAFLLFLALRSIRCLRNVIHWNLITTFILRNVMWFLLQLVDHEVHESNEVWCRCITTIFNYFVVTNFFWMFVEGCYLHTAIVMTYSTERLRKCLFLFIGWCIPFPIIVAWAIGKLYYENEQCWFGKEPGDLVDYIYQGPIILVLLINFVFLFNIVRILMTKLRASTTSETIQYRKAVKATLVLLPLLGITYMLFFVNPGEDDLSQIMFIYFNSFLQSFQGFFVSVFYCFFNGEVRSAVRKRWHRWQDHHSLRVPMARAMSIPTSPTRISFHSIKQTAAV
T2 sequence (P24387 whole entry): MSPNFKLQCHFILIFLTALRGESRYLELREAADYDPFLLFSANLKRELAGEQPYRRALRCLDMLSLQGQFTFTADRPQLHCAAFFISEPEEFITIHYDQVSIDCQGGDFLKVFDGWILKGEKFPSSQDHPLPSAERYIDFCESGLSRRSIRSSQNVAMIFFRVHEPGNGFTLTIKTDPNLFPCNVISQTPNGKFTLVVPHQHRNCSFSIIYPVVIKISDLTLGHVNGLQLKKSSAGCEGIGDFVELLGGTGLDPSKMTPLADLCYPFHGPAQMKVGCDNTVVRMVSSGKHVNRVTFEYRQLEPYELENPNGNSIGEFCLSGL
Description: activators of CRF receptor 2 with binding protein – uHTS hits, confirmation (AID 602473). Format: functional. The settings on record: read-out: EC50_Mean.

In assay [6] the target is T1, Sentrin-specific protease 1. In words: Dose response confirmation of small molecule inhibitors of the catalytic domain of the SUMO protease, SENP1 in a FRET assay. It counts as functional. The settings on record: read-out: IC50_Mean.
In the next assay the test system is INS1. In words: INS-1E survival protection against cytokine death – cell-based, luminescence, retest, dose response (AID 449756).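 Further: cell death triggered by IL-1 beta plus TNF-alpha plus IFN-gamma mixture; protective hits raise ATP signal compared with cytokine alone wells.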 It counts as functional. The settings on record: Rattus norvegicus.
Assay [7] addresses T3, Sentrin-specific protease 8 (Homo sapiens, UniProt Q96LD8).
T3 sequence (Q96LD8 whole entry): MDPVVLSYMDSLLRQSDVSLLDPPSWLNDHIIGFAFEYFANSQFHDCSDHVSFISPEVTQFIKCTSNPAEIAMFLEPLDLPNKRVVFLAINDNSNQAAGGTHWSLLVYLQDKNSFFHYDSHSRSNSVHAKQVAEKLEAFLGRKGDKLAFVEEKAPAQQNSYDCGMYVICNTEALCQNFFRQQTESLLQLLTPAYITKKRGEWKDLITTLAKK
Format: functional.

The target of assay [8] is T3, Sentrin-specific protease 8. Format: functional. This is another data set of the same source.
The target of assay [9] is Mitochondrial peptide methionine sulfoxide reductase (Bos taurus, UniProt P54149). It counts as functional.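 Further: absorbance read-out, biochemical high-throughput dose-response screen for MsrA inhibitors, confirmatory; recombinant bovine MsrA coupled to E. coli TrxB with NADPH and selenocystamine; potency is for inhibitors of MsrA activity on DMSO substrate.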
The target of assay [10] is T4, Serine/threonine-protein phosphatase (Candida dubliniensis (strain CD36 / CBS 7987 / NCPF 3949 / NRRLY-17841) (Yeast), UniProt B9W6M3).
T4 sequence (B9W6M3 whole entry): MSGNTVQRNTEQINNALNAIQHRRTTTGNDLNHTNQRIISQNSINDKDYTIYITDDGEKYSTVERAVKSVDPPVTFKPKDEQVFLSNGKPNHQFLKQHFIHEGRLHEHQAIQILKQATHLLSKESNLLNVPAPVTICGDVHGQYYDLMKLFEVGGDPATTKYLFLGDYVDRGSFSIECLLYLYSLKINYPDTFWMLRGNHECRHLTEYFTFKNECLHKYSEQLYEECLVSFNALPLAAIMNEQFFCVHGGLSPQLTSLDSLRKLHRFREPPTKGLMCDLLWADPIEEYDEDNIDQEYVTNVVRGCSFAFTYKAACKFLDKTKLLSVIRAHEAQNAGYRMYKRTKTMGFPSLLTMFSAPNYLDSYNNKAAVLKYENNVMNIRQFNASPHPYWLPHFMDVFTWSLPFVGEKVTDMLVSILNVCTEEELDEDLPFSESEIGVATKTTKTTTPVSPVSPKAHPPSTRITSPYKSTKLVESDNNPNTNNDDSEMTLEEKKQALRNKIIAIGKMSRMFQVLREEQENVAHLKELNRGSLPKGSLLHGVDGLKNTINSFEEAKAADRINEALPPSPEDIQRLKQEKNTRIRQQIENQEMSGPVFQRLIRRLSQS
In words: blockers of CaCl2-induced CDRE-lacZ signaling – S. cerevisiae, luminescence, secondary, dose response (AID 2388).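 Further: yeast reporter cells carrying a calcineurin-responsive lacZ construct stimulated with calcium chloride; luminescent beta-galactosidase reporter signal in whole cells rather than isolated phosphatase activity; potency for inhibition where a drop in reporter signal means calcineurin blockade.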 Format: functional, cell-based.

The target of assay [11] is ATP-dependent molecular chaperone HSP82 (Candida albicans (strain WO-1) (Yeast), UniProt C4YTQ8). Description: steroid-induced GRE reporter decrease in yeast – S. cerevisiae, luminescence, Hsp90 inhibitor project, dose response (AID 2400).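 Further: beta-galactosidase luminescence from glucocorticoid response element reporter as proxy for Hsp90 function; inhibitor potency where signal loss means Hsp90 inhibition.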 Format: functional, cell-based.
A short description of assay [12]: fluconazole-exposed Candida albicans growth modulators – fluorescence, retest, confirmation (AID 2467). Format: functional, cell-based.
The nature of assay [13]: NIH-3T3 fibroblast cytotoxicity, dose response, cytotoxicity control, cell-based, fluorescence, Alamar Blue, secondary assay (AID 2327).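 Further: NIH-3T3 mouse fibroblasts cultured with fluconazole at 8 µg/mL.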 It counts as functional.
The target in assay [14] is T5, Low molecular weight phosphotyrosine protein phosphatase (Homo sapiens, UniProt P24666).
T5 sequence (P24666 whole entry): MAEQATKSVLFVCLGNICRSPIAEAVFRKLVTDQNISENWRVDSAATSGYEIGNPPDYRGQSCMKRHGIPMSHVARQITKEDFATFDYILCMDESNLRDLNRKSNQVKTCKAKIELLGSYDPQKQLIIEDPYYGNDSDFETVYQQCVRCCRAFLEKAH
It counts as functional. The settings on record: read-out: IC50_Mean.

For assay [15], the target named is T5, Low molecular weight phosphotyrosine protein phosphatase. Format: functional. The settings on record: read-out: IC50_Mean. This is another data set of the same source.
Assay [16] has as its target T6, Tyrosine-protein phosphatase non-receptor type 22 (Homo sapiens, UniProt Q9Y2R2).
T6 sequence (Q9Y2R2 whole entry): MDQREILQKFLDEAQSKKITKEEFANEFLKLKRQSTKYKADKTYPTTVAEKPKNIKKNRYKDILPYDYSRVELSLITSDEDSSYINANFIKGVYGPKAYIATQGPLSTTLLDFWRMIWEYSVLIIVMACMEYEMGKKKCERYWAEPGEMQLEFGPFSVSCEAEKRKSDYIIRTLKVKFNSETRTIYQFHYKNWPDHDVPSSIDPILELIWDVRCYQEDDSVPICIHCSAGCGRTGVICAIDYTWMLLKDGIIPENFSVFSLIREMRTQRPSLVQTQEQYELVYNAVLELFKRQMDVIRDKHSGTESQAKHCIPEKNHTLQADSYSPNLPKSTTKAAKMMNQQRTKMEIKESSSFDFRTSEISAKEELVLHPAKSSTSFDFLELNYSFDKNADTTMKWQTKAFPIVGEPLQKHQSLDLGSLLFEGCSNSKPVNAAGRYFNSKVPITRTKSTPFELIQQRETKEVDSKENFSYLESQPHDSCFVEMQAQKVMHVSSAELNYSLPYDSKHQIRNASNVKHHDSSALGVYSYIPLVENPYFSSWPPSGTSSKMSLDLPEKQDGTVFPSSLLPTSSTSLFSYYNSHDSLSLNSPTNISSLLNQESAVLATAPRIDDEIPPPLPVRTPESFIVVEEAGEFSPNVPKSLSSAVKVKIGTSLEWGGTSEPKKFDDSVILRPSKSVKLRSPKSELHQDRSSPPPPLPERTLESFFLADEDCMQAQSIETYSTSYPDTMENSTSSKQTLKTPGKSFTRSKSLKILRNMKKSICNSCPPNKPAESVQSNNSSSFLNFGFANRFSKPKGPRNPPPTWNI
Description: PTPN22 enzyme inhibitors – biochemical, fluorescence, LYP catalytic domain, selectivity assay for LMPTP inhibitor project, dose response (AID 652006). Format: functional. The settings on record: read-out: IC50_Mean.

The target of a further assay is T7, Leucine aminopeptidase (Plasmodium falciparum 3D7, UniProt Q8IL11).
T7 sequence (Q8IL11 whole entry): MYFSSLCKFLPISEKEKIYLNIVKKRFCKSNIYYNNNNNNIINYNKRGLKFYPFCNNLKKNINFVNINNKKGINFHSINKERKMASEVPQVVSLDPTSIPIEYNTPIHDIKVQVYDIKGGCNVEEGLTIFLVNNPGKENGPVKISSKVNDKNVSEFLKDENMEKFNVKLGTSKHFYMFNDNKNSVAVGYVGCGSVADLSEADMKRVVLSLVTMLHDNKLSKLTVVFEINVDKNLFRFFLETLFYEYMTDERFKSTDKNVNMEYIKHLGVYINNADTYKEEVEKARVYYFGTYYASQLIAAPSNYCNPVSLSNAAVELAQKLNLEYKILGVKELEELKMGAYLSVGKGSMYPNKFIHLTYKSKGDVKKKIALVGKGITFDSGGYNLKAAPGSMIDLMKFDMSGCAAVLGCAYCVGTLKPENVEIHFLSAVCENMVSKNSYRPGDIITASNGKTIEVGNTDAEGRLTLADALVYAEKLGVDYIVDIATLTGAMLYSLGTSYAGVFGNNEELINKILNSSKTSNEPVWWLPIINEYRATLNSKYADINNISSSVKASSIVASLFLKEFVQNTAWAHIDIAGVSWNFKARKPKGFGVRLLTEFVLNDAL
Description: P. falciparum M17LAP inhibitors, primary screen, biochemical, fluorogenic H-Leu-NHMec substrate, 1536-well (AID 1619). Format: functional.

Calls of active or inactive are those of the source.

Chain of ATP-dependent molecular chaperone HSP82 (C4YTQ8 whole entry): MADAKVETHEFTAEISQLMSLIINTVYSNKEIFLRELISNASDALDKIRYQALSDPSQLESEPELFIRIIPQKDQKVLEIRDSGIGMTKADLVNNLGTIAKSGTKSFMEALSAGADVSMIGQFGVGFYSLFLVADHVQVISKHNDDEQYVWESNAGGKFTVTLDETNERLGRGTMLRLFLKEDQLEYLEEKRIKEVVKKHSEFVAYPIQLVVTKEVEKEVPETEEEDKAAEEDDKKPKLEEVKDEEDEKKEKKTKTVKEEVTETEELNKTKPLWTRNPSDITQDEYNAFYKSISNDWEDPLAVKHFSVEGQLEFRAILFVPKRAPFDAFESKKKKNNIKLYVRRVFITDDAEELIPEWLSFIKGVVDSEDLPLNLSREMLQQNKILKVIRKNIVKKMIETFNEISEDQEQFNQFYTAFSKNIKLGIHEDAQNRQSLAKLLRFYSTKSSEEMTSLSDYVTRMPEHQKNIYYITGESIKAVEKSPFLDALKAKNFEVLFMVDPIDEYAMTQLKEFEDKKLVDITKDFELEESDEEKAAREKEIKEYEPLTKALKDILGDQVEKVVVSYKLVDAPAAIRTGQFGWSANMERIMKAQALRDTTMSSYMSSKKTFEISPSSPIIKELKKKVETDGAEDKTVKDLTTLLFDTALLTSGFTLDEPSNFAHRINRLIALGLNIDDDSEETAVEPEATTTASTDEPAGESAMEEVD
Chain of Mitochondrial peptide methionine sulfoxide reductase (P54149 whole entry): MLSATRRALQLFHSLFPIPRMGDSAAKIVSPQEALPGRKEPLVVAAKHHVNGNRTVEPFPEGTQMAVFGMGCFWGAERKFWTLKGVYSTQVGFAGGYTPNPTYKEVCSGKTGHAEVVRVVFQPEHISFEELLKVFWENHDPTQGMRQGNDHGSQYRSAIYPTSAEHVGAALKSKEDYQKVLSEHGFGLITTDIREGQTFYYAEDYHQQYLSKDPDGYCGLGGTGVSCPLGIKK
Chain of Tyrosine-protein phosphatase non-receptor type 5 (P54829 whole entry): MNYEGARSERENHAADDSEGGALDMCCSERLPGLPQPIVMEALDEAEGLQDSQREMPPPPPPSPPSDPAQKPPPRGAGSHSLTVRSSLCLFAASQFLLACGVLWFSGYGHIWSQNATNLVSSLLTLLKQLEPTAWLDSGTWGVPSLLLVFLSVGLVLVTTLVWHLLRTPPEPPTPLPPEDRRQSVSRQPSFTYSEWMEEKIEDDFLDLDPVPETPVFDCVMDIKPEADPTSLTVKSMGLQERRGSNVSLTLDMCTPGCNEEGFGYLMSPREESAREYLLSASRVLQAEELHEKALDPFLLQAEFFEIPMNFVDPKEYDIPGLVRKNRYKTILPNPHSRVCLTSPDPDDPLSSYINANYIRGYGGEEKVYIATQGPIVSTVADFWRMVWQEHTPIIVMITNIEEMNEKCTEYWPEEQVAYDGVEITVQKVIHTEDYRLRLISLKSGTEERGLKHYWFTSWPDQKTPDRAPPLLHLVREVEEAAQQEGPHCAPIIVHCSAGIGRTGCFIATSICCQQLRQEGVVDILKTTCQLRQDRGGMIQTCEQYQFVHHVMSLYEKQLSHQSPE
Chain of Tyrosine-protein phosphatase non-receptor type 11 (Q06124 whole entry): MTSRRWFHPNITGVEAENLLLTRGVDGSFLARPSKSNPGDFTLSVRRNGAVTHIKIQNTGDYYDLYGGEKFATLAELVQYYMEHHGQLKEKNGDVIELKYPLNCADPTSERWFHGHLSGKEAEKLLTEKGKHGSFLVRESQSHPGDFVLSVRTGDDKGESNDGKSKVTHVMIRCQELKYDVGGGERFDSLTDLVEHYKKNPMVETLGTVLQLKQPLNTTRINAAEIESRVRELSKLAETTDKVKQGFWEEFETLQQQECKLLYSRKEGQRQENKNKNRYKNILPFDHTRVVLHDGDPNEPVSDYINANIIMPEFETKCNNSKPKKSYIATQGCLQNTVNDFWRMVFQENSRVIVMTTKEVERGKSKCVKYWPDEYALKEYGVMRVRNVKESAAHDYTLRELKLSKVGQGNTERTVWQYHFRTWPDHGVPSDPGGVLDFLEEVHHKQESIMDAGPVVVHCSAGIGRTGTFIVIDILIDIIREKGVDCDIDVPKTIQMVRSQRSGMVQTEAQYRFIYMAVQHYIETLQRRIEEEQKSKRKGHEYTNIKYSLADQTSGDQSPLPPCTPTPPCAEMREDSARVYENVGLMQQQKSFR
Chain of Dual specificity protein phosphatase 3 (P51452 whole entry): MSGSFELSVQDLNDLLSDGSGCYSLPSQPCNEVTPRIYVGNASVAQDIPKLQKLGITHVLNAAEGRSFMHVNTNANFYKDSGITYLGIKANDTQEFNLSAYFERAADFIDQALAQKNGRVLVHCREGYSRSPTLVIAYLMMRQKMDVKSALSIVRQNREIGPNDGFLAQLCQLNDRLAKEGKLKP

For the molecule `COCCN(C(=S)Nc1c(C)cc(C)cc1C)C(C)c1cccnc1` (stereo not drawn), the IC50 in assay [1] was > 80 µM (inactive); in assay [2], 1.71 µM (active); in [3] it was 0.696 µM (active).
On to `CN(C)N=C(S)Nc1ccc2nc(-c3ccccn3)c(-c3ccccn3)nc2c1`, for which the IC50 in [4] was 14.3 µM (active); in assay [6], 9.92 µM (active). The EC50 in assay [5] was > 53 µM (inactive).
On to `CC(=O)NN1C(=O)c2ccc3c4c(ccc(c24)C1=O)C(=O)N(NC(C)=O)C3=O`, for which, in the assay with INS1, the AC50 was 0.652 µM (active). The IC50 is 0.445 µM (active) in [7], 0.0707 µM (active) in [8] and 76.8 µM (inactive) in assay [9].
As to `CCc1cc(-c2nnc(S)n2-c2ccccc2C)cs1`, the EC50 is > 180 µM (inactive) in assay [10], > 160 µM (inactive) in assay [11], 0.363 µM (active) in [12] and > 150 µM (inactive) in [13].
Consider `COc1ccc(Nc2nc(NCc3cccs3)nc3ccsc23)cc1OC`, for which the values for the IC50 in assay [14], in assay [15] and in [16] were 16.4 µM (active), 11.6 µM (active) and 22.7 µM (inactive), respectively.
Regarding `Cc1[nH]c(C(=O)N/N=C/c2ccc(C(=O)O)cc2)c(C)c1C(=O)N/N=C/c1ccc(C(=O)O)cc1`, the IC50 on Leucine aminopeptidase is 45.7 µM (active); in assay [9] it was 114 µM (inactive).
For the molecule `Nc1ccc(C(=O)N/N=C\c2ccc(OC(=O)c3ccccc3Cl)cc2)cc1`, the EC50 is > 180 µM (inactive) in assay [10], > 160 µM (inactive) in [11], 0.797 µM (active) in assay [12] and > 160 µM (inconclusive) in assay [13].
